Results as given in patent US20140263071A1, “METHOD FOR COLLECTING METALS” (CHEMEC OY AB, priority 2011, published 2014).
Where two headings read alike, the source gives them in different places.

How the values were obtained:
[1] = Solubility of the compounds, molybdenum blue method, UV/Vis 880 nm (Example 6); assay type: physicochemical; conditions: saturated aqueous solution
Description: The low solubility is achieved by using long carbon chain(s) or aromatic ring(s) in the bisphosphonate structure I. Advantageously, compound I contains 7-16 carbon atoms either in chain, branched chain or cyclic structure or in combination of these structural units between A and X, and preferably in the chain starting from the P-C-P bridging carbon and the number of heteroatomic functional groups excluding the phosphorous functionalities are limited to two or three groups. The solubility decreases even more if compound I contains functional groups which are capable to form twitter ions with each other. Typical examples of twitter ions are acids (e.g., —CO2H or —PO3H2) and bases (amines) in the same molecule. Solubilities of selected bisphosphonate compounds I were determined with UV/Vis spectrophotometer at 880 nm using molybdenum blue method (Finnish Standard Association SFS 3026: Determination of phosphate in water. Finnish Standard Association SFS, Helsinki Finland, 1986).
Solubilities of selected compounds were determined with UV/Vis Spectrophotometer at 880 nm using molybdenum blue method from saturated aqueous samples solutions (Finnish Standard Association SFS 3026: Determination of phosphate in water. Finnish Standard Association SFS, Helsinki Finland, 1986).

[2] = Concentration of diluted samples, recovery after 1:10000 dilution (Example 24); conditions: 1e 1 g in 10 liters
Method: A water solution (100 ml) containing 100 ppb of desired metallic element prepared from Merch Titrisol® standard was diluted to 10 liters of water, pH was adjusted and the mixture was treated with 1e (1 g) for 24 h with stirring. After filtration trough sintered disc (porosity G-4), the solids were decomposed by using microware digestion, the residue was dilution to known volume of water (10 ml) and metal concentrations were determined by using AAS method.

[3] = Expulsion of Cu^2+, Ni^2+ and Fe^3+ without and with activated carbon (Example 9); conditions: pH 3, without activated carbon
Method: (§1) A water solution (110 ml) containing known amount of single cationic element or elements, typically 0.5-200 ppm, was prepared from Merch Titrisol® standard solution. After adjusting pH by using acid (e.g. HCl or HNO3) or base (e.g. NaOH) to desired initial value, sample A (10 ml) was taken followed by adding 100 mg of selected solid complexation agent. The mixture was stirred at room temperature for 24 h and sample B (10 ml) was taken. Samples A and B were filtrated separately trough 0.2 μm syringe filter and the concentration of the studied element or elements in both solution was determined by using atomic absorption spectrophotometer. The expulsion percent was determined from the concentration differences between the sample solutions A and B.
Using the general procedure described above expulsion percent of Cu^2+, Ni^2+ and Fe^3+ cations were determined at pH 3, when compounds 2a, 2b, 5b, 6b and 6c were used as complexation agents. Experiments were repeated also by adding activated carbon (100 mg) to solution at the same time with the used complexation agent.

[4] = Collection of Cu^2+ ions from solution with the prepared bisphosphonates (Example 26); conditions: 1.00 ppm Cu^2+; pH 3; 50 mg bisphosphonate in 50 ml
Method: as §1
A solution containing 1.00 ppm of Cu^2+ cations at pH 3 was prepared and 50 ml of that solution was treated with the desired solid bisphosphonate (50 mg) using the procedure described in general procedure. Collection-% was determined for the following compounds (Cu^2+ collection-% in parenthesis): 3a (16%), 3b (88%), 3c (93%), 4 (95%), 5a (20%), 5b (18%), 5c (85%), 6b (48%), 6c (100%), 6d (100%), 7a (88%), 7b (100%), 8b (85%), 8c (88%), 8d (94%), 8e (73%) and 9b (76%).

[5] = Removal of Cr^3+ from acidic solution, TS 4 diluted 1:100 (Example 19); conditions: TS 4 diluted 1:100, pH 3.67, 1.0 g agent in 50 ml, 24 h
Method: A test solution containing 24000 mg/l of Na^+; 50-2000 mg/l of Ca^2+, Cr^3+, K^+ and Mg^2+; and trace amount of Al^3+, Fe^2/3+, Mn^2+, Ni^2+, Sr^2+, V^4+, and Zn^2+ cations were prepared.
TS 4 was diluted to 1:100 with water, pH (3.67) of the solution was determined and sample A was taken. A part (50 ml) of the diluted solution was treated with 1a, 6d or 7a (1.0 g) for 24 h with stirring at room temperature. After filtration trough 0.2 μm syringe filter, the expulsion per for Cr(III) was determined compared to original solution A. The results of expulsion per cents of Cr^3+ and some other elements are given in Table 13.

[6] = read-out: mg/l (solubility calculated for whole molecule)
[7] = read-out: mg/l P (solubility calculated as elemental phosphorus)

solubility [1, 6]	solubility [1, 7]	SMILES	Cu^2+ collection-% [4]	other results
31 mg/L	5 mg/L	NCCCCCCCCCCCC(O)(P(=O)(O)O)P(=O)(O)O [Compound 1e, 12-Amino-1-hydroxydodecane-1,1-diyldiphosphonic acid]		Yield [%] (recovery) ([2]; Cd^2+, pH 3.6): 98%; Yield [%] (recovery) ([2]; Cr^3+, pH 3.0): 98%; Yield [%] (recovery) ([2]; Cr^3+, pH 7.0): 97%; Yield [%] (recovery) ([2]; Hg^2+, pH 2.0): 93%; Yield [%] (recovery) ([2]; Hg^2+, pH 4.9): 94%; Yield [%] (recovery) ([2]; Hg^2+, pH 9.2): 94%; Yield [%] (recovery) ([2]; Hg^+, pH 2.0): 89%; Yield [%] (recovery) ([2]; Hg^+, pH 5.0): 92%; Yield [%] (recovery) ([2]; Hg^+, pH 9.2): 92%; Yield [%] (recovery) ([2]; Pb^2+, pH 3.2): 100%; Yield [%] (recovery) ([2]; Pb^2+, pH 5.0): 85%; Yield [%] (recovery) ([2]; UO2^2+, pH 3.0): 87%
42 mg/L	6 mg/L	NCCCCCCCCCCCCCCCC(O)(P(=O)(O)O)P(=O)(O)O [Compound 1f, 16-Amino-1-hydroxyhexadecane-1,1-diyldiphosphonic acid]		
594 mg/L	97 mg/L	CNCCCCCCCCCCC(O)(P(=O)(O)O)P(=O)(O)O [Compound 2a, 1-Hydroxy-11-(methylamino)undecane-1,1-diyldiphosphonic acid]		Expulsion [%] Cu^2+ [3]: 16.4%; Expulsion [%] Fe^3+ [3]: 44.7%; Expulsion [%] Ni^2+ [3]: 13.3%
22900 mg/L	3870 mg/L	O=P(O)(O)C(O)(CCCCCCCCCCO)P(=O)(O)O [Compound 2b, 1,11-Dihydroxyundecane-1,1-diyldiphosphonic acid]		Expulsion [%] Cu^2+ [3]: 100.0%; Expulsion [%] Fe^3+ [3]: 92.6%; Expulsion [%] Ni^2+ [3]: 6.9%
	0.3 mg/L	CCCCCCCCCCC(O)(P(=O)(O)O)P(=O)(O)O [Compound 3c, 1-Hydroxyundecane-1,1-diyldiphosphonic acid]	93%	
	0.7 mg/L	CCCCCCCCCCC(P(=O)(O)O)P(=O)(O)O [Compound 6b, Undecane-1,1-diyldiphosphonic acid]	48%	Expulsion [%] Cu^2+ [3]: 1.3%; Expulsion [%] Fe^3+ [3]: 3.9%; Expulsion [%] Ni^2+ [3]: 17.2%
	0.2 mg/L	CCCCCCCCCCCCC(P(=O)(O)O)P(=O)(O)O [Compound 6c, Tridecane-1,1-diyldiphosphonic acid]	100%	Expulsion [%] Cu^2+ [3]: 20.8%; Expulsion [%] Fe^3+ [3]: 19.0%; Expulsion [%] Ni^2+ [3]: 20.8%
	0.03 mg/L	CCCCCCCCCCCCCCCCC(P(=O)(O)O)P(=O)(O)O [Compound 6d, Heptadecane-1,1-diyldiphosphonic acid]	100%	Expulsion [%] Ca^2+ ([5]; Ca^2+): 11%; Expulsion [%] Cr^3+ [5]: 100%; Expulsion [%] K^+ ([5]; K^+): 52%; Expulsion [%] Mg^2+ ([5]; Mg^2+): 80%; Expulsion [%] Na^+ ([5]; Na^+): 39%
	0.08 mg/L	CCCCCCCCC(N)(P(=O)(O)O)P(=O)(O)O [Compound 7a, 1-Aminononane-1,1-diyldiphosphonic acid]	88%	Expulsion [%] Cr^3+ [5]: 85%
	0.05 mg/L	CCCCCCCCCC(N)(P(=O)(O)O)P(=O)(O)O [Compound 7b, 1-Aminodecane-1,1-diyldiphosphonic acid]	100%	

Second part, the compound before the results:

SMILES	solubility [1, 6]	solubility [1, 7]	Cu^2+ collection-% [4]	other results
NCCCCCCCC(O)(P(=O)(O)O)P(=O)(O)O [Compound 1b, 8-Amino-1-hydroxyoctane-1,1-diyldiphosphonic acid]	2220 mg/L	426 mg/L		
NCCCCCCCCC(O)(P(=O)(O)O)P(=O)(O)O [Compound 1c, 9-Amino-1-hydroxynonane-1,1-diyldiphosphonic acid]	2180 mg/L	400 mg/L		
NCCCCCCCCCC(O)(P(=O)(O)O)P(=O)(O)O [Compound 1d, 10-Amino-1-hydroxydecane-1,1-diyldiphosphonic acid]	227 mg/L	40 mg/L		
CCCCCC(O)(P(=O)(O)O)P(=O)(O)O [Compound 3a, 1-Hydroxyhexane-1,1-diyldiphosphonic acid]	54 mg/L	12 mg/L	16%	
CCCCCCCCC(O)(P(=O)(O)O)P(=O)(O)O [Compound 3b, 1-Hydroxynonane-1,1-diyldiphosphonic acid]	5 mg/L	1 mg/L	88%	
CCCCCCCC/C=C\CCCCCCCC(O)(P(=O)(O)O)P(=O)(O)O [Compound 4, (Z)-1-Hydroxyoctadec-9-ene-1,1-diyldiphosphonic acid]			95%	
O=P(O)(O)C(O)(CCCCc1ccccc1)P(=O)(O)O [Compound 5a, 1-Hydroxy-5-phenylpentane-1,1-diyldiphosphonic acid]		1.8 mg/L	20%	
Nc1ccc(CCCC(O)(P(=O)(O)O)P(=O)(O)O)cc1 [Compound 5b, 4-(4-Aminophenyl)-1-hydroxybutane-1,1-diyldiphosphonic acid]		79 mg/L	18%	Expulsion [%] Cu^2+ [3]: 21.4%; Expulsion [%] Fe^3+ [3]: 56.3%; Expulsion [%] Ni^2+ [3]: 7.9%
O=P(O)(O)C(O)(CCCCCCc1ccccc1)P(=O)(O)O [Compound 5c, 1-Hydroxy-7-phenylheptane-1,1-diyldiphosphonic acid]		0.2 mg/L	85%	
C[N+](C)(C)CCCCCCCCCCC(O)(P(=O)(O)O)P(=O)(O)O.[Cl-] [Compound 8b, 11-Hydroxy-N,N,N-trimethyl-11,11-diphosphonoundecan-1-aminium chloride]			85%	
CC(=O)NCCCCCCCCCCC(O)(P(=O)(O)O)P(=O)(O)O [Compound 8c, 11-Acetamido-1-hydroxyundecane-1,1-diyldiphosphonic acid]			88%	
O=C(O)CCCCCCCCCCSCC(P(=O)(O)O)P(=O)(O)O [Compound 8d, 11-((2,2-diphosphonoethyl)thio)undecanoic acid]			94%	
O=C(O)CCCCCNCC(P(=O)(O)O)P(=O)(O)O [Compound 8e, 6-((2,2-diphosphonoethyl)amino)hexanoic acid]			73%	
CCCCCCCCCCCC(=O)OC(C)(P(=O)(O)O)P(=O)(O)O [Compound 9b, 1-(Dodecanoyloxy)ethane-1,1-diyldiphosphonic acid]			76%	
